# Experimental data reported in ChEMBL document CHEMBL1126264, “Secondary metabolites by chemical screening. 17. Nigericinol derivatives: synthesis, biological activities, and modeling studies” (1992).
# Columns and labels:
# [1] = tested on: Streptococcus pyogenes; experiment: Compound was tested for antimicrobial activity against […] pyogenes 308 A; type: functional
# [2] = tested on: Staphylococcus aureus; experiment: Compound was tested for antimicrobial activity against Staphylococcus aureus SG511
# [3] = (§1) Maximum tolerated dose (MTD) of the compound; type: functional; settings: herpes simplex virus
# [4] = tested on: Staphylococcus aureus; experiment: Compound was tested for antimicrobial activity against Staphylococcus aureus 285
# [5] = tested on: Human alphaherpesvirus 1; experiment: Compound was tested for antimicrobial activity against HSV type 1; type: functional
# [6] = tested on: Staphylococcus aureus; experiment: Compound was tested for antimicrobial activity against Staphylococcus aureus 503
# [7] = tested on: Human alphaherpesvirus 2; experiment: Compound was tested for antimicrobial activity against HSV type 2; type: functional
# [8] = tested on: Streptococcus pyogenes; experiment: Compound was tested for antimicrobial activity against Streptococcus pyogenes 77A; type: functional, […] pyogenes
# [9] = tested on: herpes simplex virus; experiment: as §1; type: functional
Structure (SMILES),MIC [1] [µg/mL],MIC [2] [µg/mL],MTD [3] [µg/mL],MIC [4] [µg/mL],MIC [5] [µg/mL],MIC [6] [µg/mL],MIC [7] [µg/mL],MIC [8] [µg/mL],MTD [9] [µg/mL]
CO[C@@H]1C[C@@H](C[C@H]2CC[C@H](C)[C@H]([C@@H](C)C(=O)O)O2)OC2(O[C@](C)([C@H]3CC[C@@](C)([C@@H]4O[C@@H]([C@H]5O[C@@](O)(COC(=O)C(C)C)[C@H](C)C[C@@H]5C)C[C@@H]4C)O3)C[C@H]2C)[C@@H]1C (stereo partly specified),0.049,0.39,1.4,0.39,< 0.02,0.19,< 0.02,0.049,–
CO[C@@H]1C[C@@H](C[C@H]2CC[C@H](C)[C@H]([C@@H](C)CO)O2)OC2(O[C@](C)([C@H]3CC[C@@](C)([C@@H]4O[C@@H]([C@@H](O)[C@@H](C)C[C@@H](C)CO)C[C@@H]4C)O3)C[C@H]2C)[C@@H]1C (stereo partly specified),1.56,6.25,40,3.13,40,1.56,133,50,–
CO[C@@H]1C[C@@H](C[C@H]2CC[C@H](C)[C@H]([C@@H](C)C(=O)O)O2)OC2(O[C@](C)([C@H]3CC[C@@](C)([C@@H]4O[C@@H]([C@H]5O[C@@](O)(CO)[C@H](C)C[C@@H]5C)C[C@@H]4C)O3)C[C@H]2C)[C@@H]1C (stereo partly specified),0.025,0.098,1.4,0.098,< 0.02,0.098,0.05,0.013,–
CO[C@@H]1C[C@@H](C[C@H]2CC[C@H](C)[C@H]([C@@H](C)C(=O)OCOCC[Si](C)(C)C)O2)OC2(O[C@](C)([C@H]3CC[C@@](C)([C@@H]4O[C@@H]([C@H]5O[C@](COCOCC[Si](C)(C)C)(OCOCC[Si](C)(C)C)[C@H](C)C[C@@H]5C)C[C@@H]4C)O3)C[C@H]2C)[C@@H]1C (stereo partly specified),> 100,> 100,–,> 100,4.44,> 100,13.3,> 100,> 40
CO[C@@H]1C[C@@H](C[C@H]2CC[C@H](C)[C@H]([C@@H](C)CO)O2)OC2(O[C@](C)([C@H]3CC[C@@](C)([C@@H]4O[C@@H]([C@H]5O[C@](COCOCC[Si](C)(C)C)(OCOCC[Si](C)(C)C)[C@H](C)C[C@@H]5C)C[C@@H]4C)O3)C[C@H]2C)[C@@H]1C (stereo partly specified),50,> 100,–,> 100,> 400,> 100,> 400,50,> 400
CO[C@@H]1C[C@@H](C[C@H]2CC[C@H](C)[C@H]([C@@H](C)C(=O)O)O2)OC2(O[C@](C)([C@H]3CC[C@@](C)([C@@H]4O[C@@H]([C@H]5O[C@](CO)(OC)[C@H](C)C[C@@H]5C)C[C@@H]4C)O3)C[C@H]2C)[C@@H]1C (stereo partly specified),0.39,1.56,4.4,1.56,0.02,1.56,0.5,0.39,–
CO[C@@H]1C[C@@H](C[C@H]2CC[C@H](C)[C@H]([C@@H](C)COC(=O)C(C)C)O2)OC2(O[C@](C)([C@H]3CC[C@@](C)([C@@H]4O[C@@H]([C@H]5O[C@@](O)(CO)[C@H](C)C[C@@H]5C)C[C@@H]4C)O3)C[C@H]2C)[C@@H]1C (stereo partly specified),> 100,> 100,> 400,> 100,> 400,> 100,> 400,> 100,–
CO[C@@H]1C[C@@H](C[C@H]2CC[C@H](C)[C@H]([C@@H](C)CO)O2)OC2(O[C@](C)([C@H]3CC[C@@](C)([C@@H]4O[C@@H]([C@H]5O[C@](COC(=O)C(C)C)(OC)[C@H](C)C[C@@H]5C)C[C@@H]4C)O3)C[C@H]2C)[C@@H]1C (stereo partly specified),> 100,> 100,> 400,> 100,> 400,> 100,> 400,> 100,–
CO[C@@H]1C[C@@H](C[C@H]2CC[C@H](C)[C@H]([C@@H](C)CCl)O2)OC2(O[C@](C)([C@H]3CC[C@@](C)([C@@H]4O[C@@H]([C@H]5O[C@@](O)(CCl)[C@H](C)C[C@@H]5C)C[C@@H]4C)O3)C[C@H]2C)[C@@H]1C (stereo partly specified),0.098,0.39,–,0.39,0.02,0.098,< 0.02,0.78,14.8
CO[C@@H]1C[C@@H](C[C@H]2CC[C@H](C)[C@H]([C@@H](C)CO)O2)OC2(O[C@](C)([C@H]3CC[C@@](C)([C@@H]4O[C@@H]([C@H]5O[C@@](O)(COC(=O)C(C)C)[C@H](C)C[C@@H]5C)C[C@@H]4C)O3)C[C@H]2C)[C@@H]1C (stereo partly specified),3.13,12.5,–,6.25,0.49,3.13,0.49,12.5,–
CO[C@@H]1C[C@@H](C[C@H]2CC[C@H](C)[C@H]([C@@H](C)C(=O)O)O2)OC2(O[C@](C)([C@H]3CC[C@@](C)([C@@H]4O[C@@H]([C@H]5O[C@](COC(=O)C(C)C)(OC)[C@H](C)C[C@@H]5C)C[C@@H]4C)O3)C[C@H]2C)[C@@H]1C (stereo partly specified),25,> 100,> 400,100,> 400,25,> 400,> 100,–
CO[C@@H]1C[C@@H](C[C@H]2CC[C@H](C)[C@H]([C@@H](C)C(=O)O)O2)OC2(O[C@](C)([C@H]3CC[C@@](C)([C@@H]4O[C@@H]([C@H]5OC(=O)[C@H](C)C[C@@H]5C)C[C@@H]4C)O3)C[C@H]2C)[C@@H]1C (stereo partly specified),25,50,40,50,4.44,50,13.3,25,–
CO[C@@H]1C[C@@H](C[C@H]2CC[C@H](C)[C@H]([C@@H](C)CO)O2)OC2(O[C@](C)([C@H]3CC[C@@](C)([C@@H]4O[C@@H]([C@H]5O[C@@](O)(CO)[C@H](C)C[C@@H]5C)C[C@@H]4C)O3)C[C@H]2C)[C@@H]1C (stereo partly specified),1.56,> 100,14.8,6.25,< 0.18,3.13,< 0.18,1.56,–
CO[C@@H]1C[C@@H](C[C@H]2CC[C@H](C)[C@H]([C@@H](C)CO)O2)OC2(O[C@](C)([C@H]3CC[C@@](C)([C@@H]4O[C@@H]([C@H]5O[C@](CO)(OC)[C@H](C)C[C@@H]5C)C[C@@H]4C)O3)C[C@H]2C)[C@@H]1C (stereo partly specified),> 100,> 100,14.5,> 100,4.94,> 100,0.5,> 100,–
